Measurements reported in US11053248B2, “[1,2,4]triazolo[1,5-a]pyrimidine compounds as PDE2 inhibitors” (Janssen Pharmaceutica NV, priority 2016, dated 2021).
Like-named read-outs stand apart in the source and are kept apart here.

How the values were obtained:
hPDE2A = biological target: T1, hPDE2A (Homo sapiens, UniProt O00408); experiment: In vitro assay PDE2A (SPA, 3H-cGMP); assay type: biochemical; conditions: for Emax: read-out: hPDE2A Emax
T1 construct: made in house; host or cells: Sf9 insect cells (baculovirus)
Procedure: Human recombinant PDE2A (hPDE2A) was expressed in Sf9 cells using a recombinant rPDE10A baculovirus construct. Cells were harvested after 48 h of infection and the hPDE2A protein was purified by metal chelate chromatography on Ni-sepharose 6FF. Tested compounds were dissolved and diluted in 100% DMSO to a concentration 100 fold of the final concentration in the assay. Compound dilutions (0.4 μl) were added in 384 well plates to 20 μl of incubation buffer (50 mM Tris pH 7.8, 8.3 mM MgCl2, 1.7 mM EGTA). 10 μl of hPDE2A enzyme in incubation buffer was added and the reaction was started by addition of 10 μl substrate to a final concentration of 10 μM cGMP and 0.01 μCi ^3H-cGMP. The reaction was incubated for 45 minutes at room temperature. […] After sedimentation of the beads during 30 minutes the radioactivity was measured in a Perkin Elmer Topcount scintillation counter and results were expressed as cpm. For blanc values the enzyme was omitted from the reaction and replaced by incubation buffer. Control values were obtained by addition of a final concentration of 1% DMSO instead of compound.

hPDE3B = experiment: In vitro assay PDE3 (SPA, 3H-cAMP); assay type: biochemical, human; design: hPDE3B Emax: unit not given here; conditions: for hPDE3B pIC50: 0.4 μM cAMP substrate
hPDE10A2 = hPDE10A2 (Homo sapiens, UniProt Q9Y233); experiment: biochemical; conditions: for IC50: 60 nM cAMP substrate, read-out: hPDE10A2 pIC50 (converted); for Emax: read-out: hPDE10A2 Emax
Procedure: Rat recombinant PDE10A (rPDE10A2) was expressed in Sf9 cells using a recombinant rPDE10A baculovirus construct. Cells were harvested after 48 h of infection and the rPDE10A protein was purified by metal chelate chromatography on Ni-sepharose 6FF. Tested compounds were dissolved and diluted in 100% DMSO to a concentration 100 fold of the final concentration in the assay. Human recombinant PDE10A […] was expressed in Sf9 cells using a recombinant hPDE10A baculovirus that was made and amplified in house. Cells were harvested after 72 h of infection and the hPDE10A protein was purified by metal chelate chromatography on Ni-sepharose. Compound dilutions (0.4 μl) were added in 384 well plates to 20 μl of incubation buffer (50 mM Tris pH 7.8, 8.3 mM MgCl2, 1.7 mM EGTA). […] of rPDE10A or hPDE10A enzyme in incubation buffer was added and the reaction was started by addition of 10 μl substrate to a final concentration of 60 nM cAMP and 0.008 μCi ^3H-cAMP. The reaction was incubated for 60 minutes at room temperature. […] After sedimentation of the beads during 30 minutes the radioactivity was measured in a Perkin Elmer Topcount scintillation counter and results were expressed as cpm. For blanc values the enzyme was omitted from the reaction and replaced by incubation buffer. Control values were obtained by addition of a final concentration of 1% DMSO instead of compound.

PDE2A = biological target: T2, PDE2A (Rattus norvegicus, UniProt Q01062); experiment: PDE2 occupancy by ex-vivo autoradiography with [3H]B-17a; assay type: in vivo; conditions: rat, read-out: PDE2 occupancy at 10 mg/kg
T2 construct: from tissue; host or cells: rat brain striatal sections (ex vivo)
T2 sequence (Q01062 1-928): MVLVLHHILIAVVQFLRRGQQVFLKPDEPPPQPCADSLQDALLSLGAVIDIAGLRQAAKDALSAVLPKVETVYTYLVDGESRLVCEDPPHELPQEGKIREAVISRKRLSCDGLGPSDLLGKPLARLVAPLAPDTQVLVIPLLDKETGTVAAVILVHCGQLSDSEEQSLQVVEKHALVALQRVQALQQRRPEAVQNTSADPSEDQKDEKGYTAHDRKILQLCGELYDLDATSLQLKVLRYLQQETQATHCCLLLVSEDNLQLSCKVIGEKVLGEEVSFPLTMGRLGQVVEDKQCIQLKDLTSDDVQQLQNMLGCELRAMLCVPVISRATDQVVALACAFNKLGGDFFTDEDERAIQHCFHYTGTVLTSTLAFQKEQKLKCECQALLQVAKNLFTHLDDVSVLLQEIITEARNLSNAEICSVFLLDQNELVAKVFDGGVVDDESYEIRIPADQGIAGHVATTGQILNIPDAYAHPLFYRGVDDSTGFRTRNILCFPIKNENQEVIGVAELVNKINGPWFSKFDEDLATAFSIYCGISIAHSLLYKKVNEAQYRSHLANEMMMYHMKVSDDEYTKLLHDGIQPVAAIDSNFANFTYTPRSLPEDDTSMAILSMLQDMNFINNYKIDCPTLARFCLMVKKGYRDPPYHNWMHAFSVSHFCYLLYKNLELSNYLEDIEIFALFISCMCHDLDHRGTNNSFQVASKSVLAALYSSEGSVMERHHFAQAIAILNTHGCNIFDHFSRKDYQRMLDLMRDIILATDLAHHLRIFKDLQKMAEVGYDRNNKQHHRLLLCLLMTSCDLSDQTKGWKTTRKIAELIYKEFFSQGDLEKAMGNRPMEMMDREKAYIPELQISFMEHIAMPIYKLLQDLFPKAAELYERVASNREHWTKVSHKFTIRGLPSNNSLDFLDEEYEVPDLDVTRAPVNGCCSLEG
Procedure: PDE2 Occupancy by Test Compounds Methods
Brains were immediately removed from the skull and rapidly frozen in dry-ice cooled 2-methylbutane (−40° C.).
After thawing, sections were dried under a cold stream of air and incubated for one minute with 30 nM [^3H]B-17a in Tris-HCl (50 mM, pH7.4) containing 0.3% BSA. Brain sections from drug-treated and vehicle-treated animals were incubated in parallel. […] After incubation, the excess of [^3H]B-17a was washed off in ice-cold buffer 2 times 10 minutes, followed by a quick dip in distilled water. The sections were then dried under a stream of cold air.
Brain sections were loaded in a β-imager (Biospace, Paris) for 4 h and radioactivity emerging from delineated brain area was quantified using the Beta vision program (Biospace, Paris). Specific binding was determined as the difference between total binding in the striatum and non-specific binding in the cerebellum. Percentage receptor occupancy of the drug administered to the animal corresponded to 100% minus the percentage receptor labeled in the treated animal. For the determination of ED50-values, the percentage of receptor occupancy was plotted against dose and the sigmoidal log dose-effect curve of best fit was calculated by non-linear regression analysis, using the GraphPad Prism program.

T1 sequence (O00408 whole entry): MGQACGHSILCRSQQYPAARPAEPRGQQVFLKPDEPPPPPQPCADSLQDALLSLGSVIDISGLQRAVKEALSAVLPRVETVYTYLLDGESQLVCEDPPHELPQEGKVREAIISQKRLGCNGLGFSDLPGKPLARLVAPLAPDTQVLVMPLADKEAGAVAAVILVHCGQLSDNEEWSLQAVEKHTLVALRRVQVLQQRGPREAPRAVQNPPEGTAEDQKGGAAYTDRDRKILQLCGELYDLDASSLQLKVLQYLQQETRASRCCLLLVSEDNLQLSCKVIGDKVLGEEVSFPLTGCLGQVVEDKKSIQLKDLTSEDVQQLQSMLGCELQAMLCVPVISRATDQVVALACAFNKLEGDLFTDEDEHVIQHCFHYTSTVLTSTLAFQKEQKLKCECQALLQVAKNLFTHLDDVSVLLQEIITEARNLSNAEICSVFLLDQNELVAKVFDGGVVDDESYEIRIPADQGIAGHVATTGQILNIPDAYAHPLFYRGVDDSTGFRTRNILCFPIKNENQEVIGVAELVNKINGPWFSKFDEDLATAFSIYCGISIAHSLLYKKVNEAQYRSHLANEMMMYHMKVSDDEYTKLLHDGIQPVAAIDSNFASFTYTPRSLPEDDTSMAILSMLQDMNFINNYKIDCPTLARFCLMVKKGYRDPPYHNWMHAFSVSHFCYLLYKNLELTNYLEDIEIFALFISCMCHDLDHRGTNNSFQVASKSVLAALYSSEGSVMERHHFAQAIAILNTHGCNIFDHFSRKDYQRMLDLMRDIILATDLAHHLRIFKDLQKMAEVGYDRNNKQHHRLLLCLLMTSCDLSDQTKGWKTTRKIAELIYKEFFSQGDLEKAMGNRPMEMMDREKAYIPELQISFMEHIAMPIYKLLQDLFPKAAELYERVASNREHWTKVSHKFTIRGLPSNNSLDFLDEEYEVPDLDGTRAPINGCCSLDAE
hPDE10A2, sequence (Q9Y233 267-1055): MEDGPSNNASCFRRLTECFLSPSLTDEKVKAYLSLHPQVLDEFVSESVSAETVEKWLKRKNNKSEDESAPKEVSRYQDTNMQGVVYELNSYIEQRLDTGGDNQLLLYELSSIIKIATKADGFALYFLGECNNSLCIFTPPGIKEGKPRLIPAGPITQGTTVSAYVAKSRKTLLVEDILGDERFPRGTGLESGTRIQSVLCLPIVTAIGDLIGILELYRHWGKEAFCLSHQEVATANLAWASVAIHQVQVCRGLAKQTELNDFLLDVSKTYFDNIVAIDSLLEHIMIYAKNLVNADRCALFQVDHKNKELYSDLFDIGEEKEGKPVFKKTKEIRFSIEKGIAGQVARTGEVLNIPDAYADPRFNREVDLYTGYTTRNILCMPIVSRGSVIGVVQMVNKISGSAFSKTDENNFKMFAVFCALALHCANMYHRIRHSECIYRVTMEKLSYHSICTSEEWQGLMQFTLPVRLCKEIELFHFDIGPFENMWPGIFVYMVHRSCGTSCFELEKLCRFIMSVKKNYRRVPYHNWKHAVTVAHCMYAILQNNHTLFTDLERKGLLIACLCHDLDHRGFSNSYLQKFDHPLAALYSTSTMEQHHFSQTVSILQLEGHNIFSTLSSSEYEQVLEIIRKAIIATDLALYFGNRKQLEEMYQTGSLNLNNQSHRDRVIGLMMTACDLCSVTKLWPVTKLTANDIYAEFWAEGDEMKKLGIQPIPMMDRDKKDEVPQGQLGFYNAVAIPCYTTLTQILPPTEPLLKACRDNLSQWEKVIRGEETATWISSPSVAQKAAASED

Structure (SMILES)	IC50 (hPDE2A) [nM]	Emax (hPDE2A) [%]	hPDE3B Emax (hPDE3B)	hPDE3B pIC50 (hPDE3B)	IC50 (hPDE10A2) [nM]	Emax (hPDE10A2) [%]	receptor occupancy at 10 mg/kg (PDE2A; route SC (subcutaneous), 10 mg/kg, male Wistar rats, striatum, percentage occupancy) [%]	receptor occupancy at 10 mg/kg (PDE2A; route PO (oral), 10 mg/kg, male Wistar rats, striatum, percentage occupancy) [%]	receptor occupancy at 10 mg/kg (PDE2A; po) [%]
Cc1cccc(N2CC[C@@H](C)C(c3cc(C(F)F)nc4ncnn34)C2)n1 (stereo partly shown) [Compound 39]	145	99	58	5.13	1290	87			
C[C@@H]1CCN(c2ncccc2Cl)C[C@H]1c1cc(C(F)F)nc2ncnn12 [Compound 28]	110	99	50	4.96	692	90			
COc1cnc(N2CC[C@@H](C)[C@H](c3cc(C(F)F)nc4ncnn34)C2)c2ccccc12 [Compound 8]	10.7	101	73	5.22	1020	97			
C[C@@H]1CCN(c2ccc(C(F)(F)F)cn2)C[C@H]1c1cc(C(F)F)nc2ncnn12 [Compound 38]	170	99	49	<5	759	92			
CCCCOc1ccnc(N2CC[C@@H](C)[C@H](c3cc(C(F)F)nc4ncnn34)C2)c1 [Compound 11]	13.8	99	99	6.02	355	97			
C[C@@H]1CCN(c2cc(N3CCOCC3)ccn2)C[C@H]1c1cc(C(F)F)nc2ncnn12 [Compound 27]	107	100	48	5.07	2630	80	0		
CC(C)Oc1cccnc1N1CC[C@H](C)[C@@H](c2cc(C(F)F)nc3ncnn23)C1.Cl [Compound 34]	2400	30	2	<5	> 10000	33			
C[C@@H]1CCN(c2cc(C#N)ccn2)C[C@H]1c1cc(C(F)F)nc2ncnn12 [Compound 22]	67.6	100	82	5.5	1150	90		0	
C[C@@H]1CCN(c2ncnc3ccccc23)C[C@H]1c1cc(C(F)F)nc2ncnn12 [Compound 12]	14.5	100	67	5.25	646	96			1
C[C@@H]1CCN(c2cccc(C(F)(F)F)n2)C[C@H]1c1cc(C(F)F)nc2ncnn12 [Compound 26]	91.2	99	80	5.43	457	95			
C[C@@H]1CCN(c2ccnc3ccccc23)C[C@H]1c1cc(C(F)F)nc2ncnn12 [Compound 42]	20.4	99	70	5.27	1230	91			-8
Cc1cc([C@@H]2CN(c3nccc4ccccc34)CC[C@H]2C)n2ncnc2n1 [Compound 15]	17.4	100	69	5.21	162	98			
C[C@@H]1CCN(c2nccc3ccc(F)cc23)C[C@H]1c1cc(C(F)F)nc2ncnn12 [Compound 14]	17	101	62	5.29	389	98			
FC(F)c1cc([C@H]2CC[C@H]3CC[C@@H]2N3c2c(Br)ccc3ccncc23)n2ncnc2n1 [Compound 5]	6.76	100	76	5.27	427	97			
COc1ccnc(N2CC[C@@H](C)[C@H](c3cc(C(F)F)nc4ncnn34)C2)c1OC.Cl [Compound 33]	166	89	40	<5	1700	82			
C[C@@H]1CCN(c2ccc(F)cn2)C[C@H]1c1cc(C(F)F)nc2ncnn12 [Compound 36]	245	100	56	5.01	1510	84			
C[C@@H]1CCN(c2cccc(C#N)n2)C[C@H]1c1cc(C(F)F)nc2ncnn12 [Compound 24]	79.4	100	68	5.17	575	94			
C[C@@H]1CCN(c2ccc(Cl)cn2)C[C@H]1c1cc(C(F)F)nc2ncnn12 [Compound 25]	83.2	101	45	<5	692	92			
C[C@@H]1CCN(c2ncc(C(F)(F)F)cc2Br)C[C@H]1c1cc(C(F)F)nc2ncnn12 [Compound 19]	30.2	100	38	<5	417	96			
CC(C)Oc1cccnc1N1CC[C@@H](C)[C@H](c2cc(C(F)F)nc3ncnn23)C1.Cl [Compound 31]	257	81	27	<5	1290	91			
